In brackets after ≈: the same amount, converted by molar mass. Several values for one entry are separate records, joined by “and”; a condition that tells them apart may be missing. Equal entries are not always repeated. Where two headings read alike, the source gives them in different places.
Legend:
[1] = system: Streptococcus pneumoniae Park I; assay: microbe, parasite or virus in culture; type: cell-based; conditions: Streptococcus pneumoniae
Protocol: (§1) The MIC's s in Table III were determined by standard agar-dilution assays. The MIC's in Table IV were obtained using a conventional broth-dilution microtiter test.

Staphylococcus aureus = assay: ED50 vs. Staphylococcus aureus experimental infection in mice (Table V); type: in vivo; conditions: sc, subcutaneous, two doses, dose protecting 50% of animals, read-out: ED50 Subcutaneous
Protocol: (§2) Certain formula 1a compounds have also shown in vivo antimicrobial activity against experimental bacterial infections. When two doses of test compound were administered to mice in experimental infections, the activity observed was measured as an ED50 value [effective dose in mg/kg to protect 50% of the test animals: see Warren Wick, et al., J. Bacteriol. 81, 233-235 (1961)].

Pasteurella multocida = assay: Activity in Pasteurella multocida-infected one-day-old chicks (Table VIII); type: in vivo; conditions: subcutaneous 30 mg/kg × 2, 1 and 4 hours post-challenge, all non-medicated chicks died within 24 hours
Protocol: Table VIII summarizes the results of tests in which illustrative compounds were evaluated against a Pasteurella infection in one-day-old chicks. The compounds were administered parenterally after challenge of the chicks with Pasteurella multocida (0.1 mL of a 10^-4 dilution of a twenty-hour tryptose broth culture of an avian P. multocida given subcutaneously). In these tests, all non-medicated infected chicks died within 24 hours of Pasteurella challenge. In the tests summarized in Table VIII, the compounds were administered by subcutaneous injection at a dosage of 30 mg/kg, 1 and 4 hours post-challenge of the chicks with P. multocida.

Streptococcus pyogenes = assay: ED50 vs Streptococcus pyogenes experimental infection in mice (Table VI); type: in vivo; conditions: two doses, several values = results from more than one test; for ED50: po, read-out: ED50 Oral
Protocol: as §2

Mycoplasma synoviae 40A = assay: MIC, conventional broth-dilution microtiter test (Table IV); type: cell-based; conditions: Mycoplasmopsis synoviae
Protocol: as §1

[2] = system: Pasteurella multocida 17E; assay: as above; type: cell-based
Protocol: as §1

[3] = system: Pasteurella multocida 60A; assay: as above; type: cell-based
Protocol: as §1

[4] = system: Pasteurella hemolytica 41D; assay: as above; type: cell-based
Protocol: as §1

Mycoplasma hyorhinis 29E = assay: as above; type: cell-based; conditions: broth-dilution microtiter; Mycoplasma hyorhinis 29E; read-out: MIC
Protocol: as §1

[5] = system: Staphylococcus aureus 19C; assay: as above; type: cell-based
Protocol: as §1

[6] = system: Pasteurella multocida 22A; assay: as above; type: cell-based
Protocol: as §1

[7] = system: Mycoplasma gallisepticum 29C; assay: as above; type: cell-based; conditions: Mycoplasmoides gallisepticum, 29C
Protocol: as §1

[8] = system: Pasteurella multocida 68C; assay: as above; type: cell-based
Protocol: as §1

[9] = system: Pasteurella multocida 40G; assay: as above; type: cell-based
Protocol: as §1

[10] = system: Mycoplasma gallisepticum 15E; assay: as above; type: cell-based; conditions: Mycoplasmoides gallisepticum; broth-dilution microtiter; Mycoplasma gallisepticum 15E; read-out: MIC
Protocol: as §1

[11] = system: Bordetella bronchisepticum 95B; assay: as above; type: cell-based
Protocol: as §1

[12] = system: Mycoplasma hyopneumoniae S5972; assay: as above; type: cell-based; conditions: Mesomycoplasma hyopneumoniae
Protocol: as §1

[13] = system: Pasteurella hemolytica 23C; assay: as above; type: cell-based
Protocol: as §1

[14] = system: Pasteurella hemolytica 22C; assay: as above; type: cell-based; conditions: Pasteurella, 22C
Protocol: as §1

[15] = system: Mycoplasma gallisepticum 36H; assay: as above; type: cell-based; conditions: Mycoplasmoides gallisepticum; broth-dilution microtiter; Mycoplasma gallisepticum 36H; read-out: MIC
Protocol: as §1

Streptococcus sp. 19F = assay: as above; type: cell-based
Protocol: as §1

[16] = system: Streptococcous pneumoniae; assay: ED50 vs. Streptococcous pneumoniae experimental infection in mice (Table VII); type: in vivo; conditions: Mus musculus, sc, subcutaneous, two doses, read-out: ED50 Subcutaneous
Protocol: as §2

[17] = system: Haemophilus influenzae C.L.; assay: MIC, standard agar-dilution assay (Table III); type: cell-based
Protocol: as §1

[18] = system: Staphylococcus aureus X400; assay: MIC, standard agar-dilution assay (Table III); type: cell-based
Protocol: as §1

[19] = system: Streptococcus Group D 2041; assay: MIC, standard agar-dilution assay (Table III); type: cell-based; conditions: GROUPD2041
Protocol: as §1

[20] = system: Staphylococcus aureus V41; assay: MIC, standard agar-dilution assay (Table III); type: cell-based; conditions: Staphylococcus aureus V41, penicillin-resistant strain
Protocol: as §1

[21] = system: Staphylococcus epidermidis 222; assay: MIC, standard agar-dilution assay (Table III); type: cell-based; conditions: agar dilution; Staphylococcus epidermidis 222; read-out: MIC
Protocol: as §1

[22] = system: Staphylococcus aureus S13E; assay: MIC, standard agar-dilution assay (Table III); type: cell-based
Protocol: as §1

[23] = system: Streptococcus pyogenes C203; assay: MIC, standard agar-dilution assay (Table III); type: cell-based; conditions: agar dilution; Streptococcus pyogenes C203; read-out: MIC
Protocol: as §1

[24] = system: Staphylococcus epidermidis EPI1; assay: MIC, standard agar-dilution assay (Table III); type: cell-based; conditions: Staphylococcus epidermidis, EPI1
Protocol: as §1

[25] = system: Staphylococcus aureus X1.1; assay: MIC, standard agar-dilution assay (Table III); type: cell-based
Protocol: as §1

[26] = system: Haemophilus influenzae 76; assay: MIC, standard agar-dilution assay (Table III); type: cell-based; conditions: agar dilution; Haemophilus influenzae 76, ampicillin-resistant strain; read-out: MIC
Protocol: as §1

[27] = system: Streptococcus Group D X66; assay: MIC, standard agar-dilution assay (Table III); type: cell-based
Protocol: as §1

[28] = broth-dilution microtiter, Mycoplasma hyopneumoniae S5972, read-out: MIC
[29] = broth-dilution microtiter, Pasteurella multocida 17E, bovine isolate, read-out: MIC
[30] = broth-dilution microtiter, Pasteurella multocida 60A, avian isolate, read-out: MIC
[31] = broth-dilution microtiter, Pasteurella hemolytica 41D, read-out: MIC
[32] = broth-dilution microtiter, Staphylococcus aureus 19C, read-out: MIC
[33] = broth-dilution microtiter, Pasteurella multocida 22A, read-out: MIC
[34] = broth-dilution microtiter, Pasteurella multocida 68C, read-out: MIC
[35] = broth-dilution microtiter, Pasteurella multocida 40G, read-out: MIC
[36] = broth-dilution microtiter, Pasteurella hemolytica 23C, read-out: MIC
[37] = agar dilution, Haemophilus influenzae C.L., ampicillin-sensitive strain, read-out: MIC

Row | Structure (SMILES) | ED50 (Staphylococcus aureus) [mg/kg] | Number of Deaths/Number Treated (Pasteurella multocida) | ED50 (Streptococcus pyogenes) [mg/kg] | MIC (Mycoplasma synoviae 40A; 40A) [µg/mL] | MIC (Mycoplasma hyorhinis 29E) [µg/mL] | MIC [7] [µg/mL] | MIC [10] [µg/mL] | MIC [11] [µg/mL] | MIC [12, 28] [µg/mL] | MIC [14] [µg/mL] | MIC [15] [µg/mL] | MIC (Streptococcus sp. 19F) [µg/mL] | ED50 [16] [mg/kg] | MIC [20] [µg/mL] | MIC [21] [µg/mL] | MIC [22] [µg/mL] | MIC [23] [µg/mL] | MIC [24] [µg/mL] | MIC [25] [µg/mL] | MIC [26] [µg/mL] | other results
1 | CCC1OC(=O)CC(O)C(C)C(OC2OC(C)C(O)C(N(C)C)C2O)C(CC=O)CC(C)C(=O)C=CC(C)=CC1CNC12CC3CC(CC(C3)C1)C2 (stereo not drawn) [Compound 1, 23-deoxy-23-(1-adamantanylamino)-OMT] | 3.58 | 0/10 | > 100 | < 0.048 | 0.39 (≈ 0.534 µM) | 0.097 (≈ 0.133 µM) | 6.25 (≈ 8.55 µM) | 6.25 (≈ 8.55 µM) | < 0.024 | 3.12 (≈ 4.27 µM) | 6.25 (≈ 8.55 µM) | < 0.048 | 2.5 | 0.5 (≈ 0.684 µM) | 0.125 (≈ 0.171 µM) | 0.5 (≈ 0.684 µM) | 0.125 (≈ 0.171 µM) | 0.5 (≈ 0.684 µM) | 0.5 (≈ 0.684 µM) | 0.5 (≈ 0.684 µM) | MIC ([1]; read-out: MIC): 0.06 µg/mL (≈ 0.0821 µM); ED50 Oral (Streptococcus pyogenes; oral): 81.8 mg/kg × 2; MIC ([2]; Pasteurella multocida, 17E): 0.78 µg/mL (≈ 1.07 µM); MIC ([3]; Pasteurella multocida, 60A): 0.78 µg/mL (≈ 1.07 µM); MIC ([4]; Pasteurella, 41D): 1.56 µg/mL (≈ 2.13 µM); MIC ([5]; Staphylococcus aureus, 19C): 0.78 µg/mL (≈ 1.07 µM); MIC ([6]; Pasteurella multocida, 22A): 0.78 µg/mL (≈ 1.07 µM); MIC ([8]; Pasteurella multocida, 68C): 0.78 µg/mL (≈ 1.07 µM); MIC ([9]; Pasteurella multocida, 40G): 0.78 µg/mL (≈ 1.07 µM); MIC ([13]; Pasteurella, 23C): 1.56 µg/mL (≈ 2.13 µM); MIC ([17]; Haemophilus influenzae): 2 µg/mL (≈ 2.74 µM); MIC ([18]; Staphylococcus aureus, X400): 0.5 µg/mL (≈ 0.684 µM); MIC [19]: 0.5 µg/mL (≈ 0.684 µM); MIC [27]: 0.5 µg/mL (≈ 0.684 µM)
2 | CCC1OC(=O)CC(O)C(C)C(OC2OC(C)C(O)C(N(C)C)C2O)C(CC=O)CC(C)C(=O)C=CC(C)=CC1CN1CCCC12CCCCC2 (stereo not drawn) [Compound 31, 23-deoxy-23-(1-azaspiro[4.5]decan-1-yl)-OMT] | 2.15 | 0/10 and 3/10 | 59.5 | – | – | 0.097 (≈ 0.135 µM) | 50 (≈ 69.5 µM) | 6.25 (≈ 8.69 µM) | – | 0.78 (≈ 1.08 µM) | 50 (≈ 69.5 µM) | < 0.048 | 9.22 | 0.5 (≈ 0.695 µM) | 0.25 (≈ 0.348 µM) | 0.5 (≈ 0.695 µM) | 0.125 (≈ 0.174 µM) | 0.5 (≈ 0.695 µM) | 0.5 (≈ 0.695 µM) | 2 (≈ 2.78 µM) | MIC [1]: 0.03 µg/mL (≈ 0.0417 µM); MIC (Mycoplasma synoviae 40A; broth-dilution microtiter, Mycoplasma synoviae 40A, read-out: MIC): 0.195 µg/mL (≈ 0.271 µM); MIC [2, 29]: 0.39 µg/mL (≈ 0.542 µM); MIC [3, 30]: 0.39 µg/mL (≈ 0.542 µM); MIC [4, 31]: 0.39 µg/mL (≈ 0.542 µM); MIC [5, 32]: 0.39 µg/mL (≈ 0.542 µM); MIC [6, 33]: 0.39 µg/mL (≈ 0.542 µM); MIC [8, 34]: 0.39 µg/mL (≈ 0.542 µM); MIC [9, 35]: 0.195 µg/mL (≈ 0.271 µM); MIC ([12]; S5972): 0.097 µg/mL (≈ 0.135 µM); MIC [13, 36]: 0.39 µg/mL (≈ 0.542 µM); MIC [17, 37]: 2 µg/mL (≈ 2.78 µM); MIC ([18]; Staphylococcus aureus, X400): 0.5 µg/mL (≈ 0.695 µM); MIC ([19]; agar dilution, Streptococcus Group D 2041, read-out: MIC): 0.25 µg/mL (≈ 0.348 µM); MIC ([27]; agar dilution, Streptococcus Group D X66, read-out: MIC): 0.25 µg/mL (≈ 0.348 µM)
3 | CCC1OC(=O)CC(O)C(C)C(OC2OC(C)C(O)C(N(C)C)C2O)C(CC=O)CC(C)C(=O)C=CC(C)=CC1CN1CCCC2CCCCC21 (stereo not drawn) [Compound 20, 23-deoxy-23-(decahydroquinolin-1-yl)-OMT] | 10 | 6/10 and 8/10 | 77 | < 0.048 | 0.39 (≈ 0.542 µM) | > 0.048 | 0.39 (≈ 0.542 µM) | 6.25 (≈ 8.69 µM) | < 0.024 | 3.12 (≈ 4.34 µM) | 0.78 (≈ 1.08 µM) | < 0.048 | 5 | 0.25 (≈ 0.348 µM) | 0.125 (≈ 0.174 µM) | 0.25 (≈ 0.348 µM) | 0.125 (≈ 0.174 µM) | 0.25 (≈ 0.348 µM) | 0.25 (≈ 0.348 µM) | 1 (≈ 1.39 µM) | MIC [1]: 0.03 µg/mL (≈ 0.0417 µM); MIC [2, 29]: 0.78 µg/mL (≈ 1.08 µM); MIC [3, 30]: 0.78 µg/mL (≈ 1.08 µM); MIC [4, 31]: 1.56 µg/mL (≈ 2.17 µM); MIC [5, 32]: 1.56 µg/mL (≈ 2.17 µM); MIC [6, 33]: 0.78 µg/mL (≈ 1.08 µM); MIC [8, 34]: 0.78 µg/mL (≈ 1.08 µM); MIC [9, 35]: 0.39 µg/mL (≈ 0.542 µM); MIC [13, 36]: 0.78 µg/mL (≈ 1.08 µM); MIC [17, 37]: 1 µg/mL (≈ 1.39 µM); MIC ([18]; agar dilution, Staphylococcus aureus X400, methicillin-resistant strain, read-out: MIC): 0.5 µg/mL (≈ 0.695 µM); MIC [19]: 0.25 µg/mL (≈ 0.348 µM); MIC [27]: 0.25 µg/mL (≈ 0.348 µM)

— patent US4604380A, “C-23-substituted mycaminosyltylonolide compounds, pharmaceutical compositions and methods of use” (Eli Lilly and Company, priority 1985, dated 1986)
